Earlier results, collected in patent US20230170070A1, “SYSTEM AND METHOD FOR PROVIDING FERTILITY ENHANCING DIETARY RECOMMENDATIONS IN INDIVIDUALS WITH SPERM CONDITIONS” (SOCIETE DES PRODUITS NESTLE S.A., priority 2020, published 2023).
Where two headings read alike, the source gives them in different places.

Tests used:
sperm cells = conditions: excessive alcohol
semen quality [1] = conditions: for semen quality: In RCTs
semen quality [2] = conditions: from cold water fish
oxidative stress status = conditions: exogenous supplementation; both in vitro and in vivo
[3] = for pregnancy rate in the female partner: In RCTs
[4] = among men with astheno- or oligoasthenozoospermia

Molecule: CCO [Alcohol]
- hormones in men (sperm cells): decreases hormones in
- sperm cells (sperm cells): men and degenerates

Molecule: CC(C)=CCC/C(C)=C/C=C/C(C)=C/C=C/C(C)=C/C=C/C=C(C)/C=C/C=C(C)/C=C/C=C(\C)CCC=C(C)C [Lycopene]
- sperm parameters (semen quality [1]; in vivo): Improve sperm

Molecule: omega-3 fatty acids
- influence on sperm morphology (semen quality [2]): positive influence

Molecule: O=C(O)CCCCC1CCSS1 (stereo not drawn) [Alpha-lipoic acid (ALA), Alpha-lipoic acid]
- oxidative stress status (oxidative stress status): improve oxidative stress

Molecule: C[N+](C)(C)C[C@H](O)CC(=O)[O-] [L-carnitine]
- sperm concentration (semen quality [1]; [4]): can significantly improve
- total sperm counts (semen quality [1]; [4]): can significantly improve

Molecule: N[C@@H](CCC(=O)N[C@@H](CS)C(=O)NCC(=O)O)C(=O)O [Glutathione]
- sperm concentration (semen quality [1]; glutathione supplementation): Improves sperm
- sperm morphology (semen quality [1]; glutathione supplementation): Improves sperm
- sperm motility (semen quality [1]; glutathione supplementation): Improves sperm

Molecule: Vitamin E
- semen quality (semen quality [1]): been shown to increase
- pregnancy rate in the female partner [3]: been shown to increase

Molecule: [Zn] [Zinc]
- semen quality (semen quality [1]): shown to increase
- pregnancy rate in the female partner [3]: shown to increase

Molecule: COc1cc(/C=C/C(=O)CC(=O)/C=C/c2ccc(O)c(OC)c2)ccc1O [Curcumin]
- semena quality parameters (semen quality [1]; among oligoasthenoteratozoospermic men): Curcumin improved

Molecule: O[C@H]1[C@H](O)[C@@H](O)[C@H](O)[C@@H](O)[C@H]1O [Myoinositol]
- progressive motility (semen quality [1]; myoinositol supplementation): increase in sperm
- sperm concentration (semen quality [1]; myoinositol supplementation): increase in sperm
- sperm count (semen quality [1]; myoinositol supplementation): increase in sperm

Molecule: O=C1O[C@H]([C@@H](O)CO)C(O)=C1O [Vitamin C]
- progressive sperm motility (semen quality [1]; in vivo): increase in progressive

Molecule: C=C1CC[C@H](O)C/C1=C/C=C1\CCC[C@]2(C)[C@@H]([C@H](C)CCCC(C)C)CC[C@@H]12 [Vitamin D]
- live birth rate ([3]; among oligozoospermic men, high-dose supplementation compared to placebo): uptake. A higher live

Molecule: isoflavones
- non-genomic effects on sperm capacitation and acrosome reaction (sperm): genomic negative

Molecule: CC(=O)O[C@H](CC(=O)[O-])C[N+](C)(C)C [L-acetyl carnitine (LAC), L-acetyl carnitine]
- sperm concentration (semen quality [1]; [4]): can significantly improve
- total sperm counts (semen quality [1]; [4]): can significantly improve

Molecule: [Se] [Selenium]
- total sperm motility (semen quality [1]; compared with placebo): increase in total sperm
